Source: patent publication US20120184438A1, “FORMULATIONS” (SYNGENTA CROP PROTECTION, LLC, priority 2009, published 2012)
Read-outs that look alike come from different tables or passages of the source.

What was measured:
Format in all cases: physicochemical
[1] = Aqueous solubility of solvents
Description: (§1) This Example illustrates that Compound Number 1 is unusually effective at dissolving pesticides given that it has a water solubility which is low.

[2] = Solubility of agrochemical active ingredients in Compound No. 1 (equilibrated 4 weeks at 25° C., supernatant analysed by GC/LC); settings: solvent Compound No. 1 (DEET), 4 weeks equilibration
Description: The resultant sample was mixed with a Whirlimixer™ and was then stored at 25° C. The sample was checked every few days; if there was no solid active ingredient present then additional active ingredient was added; if there was no liquid remaining then additional solvent was added. This procedure was repeated until the sample had equilibrated for 4 weeks following the final addition of either active ingredient or solvent.

[3] = Pesticide (A.I.) solubility in several solvents at 25° C.
Description: A glass vial was approximately one eighth filled with an active ingredient [Al] and then solvent [in this example, Compound Number 1 from Table 1] was added until the vial was approximately one third full. The resultant sample was mixed with a Whirlimixer™ and was then stored at 25° C. The sample was checked every few days; if there was no solid active ingredient present then additional active ingredient was added; if there was no liquid remaining then additional solvent was added. This procedure was repeated until the sample had equilibrated for 4 weeks following the final addition of either active ingredient or solvent. The supernatent liquid layer was then analysed by gas chromatography [except for 4-hydroxy-3-[2-(2-methoxyethoxymethyl)-6-trifluoromethylpyridine-3-carbonyl]-bicyclo[3.2.1]oct-3-en-2-one which was analysed by liquid chromatography] for active ingredient concentration; the results are given in Table 2:
as §1

[4] = solubility of the solvent in water

CCCCOC(=O)c1ccccc1 [n-Butylbenzoate]
Aqueous solubility [1, 4]: 0.1 % w/w

CC(C)[C@@H]1CC[C@@H](C)CC1=O [Menthone]
Aqueous solubility [1, 4]: 0.030 % w/w

CC(C1CC1)C(O)(Cn1cncn1)c1ccc(Cl)cc1 (stereo not drawn) [Cyproconazole]
Solubility in Compound No. 1 at 25° C. [2]: 33.4 % w/w

CC(=O)O[C@@H]1C[C@H]2CC[C@]1(C)C2(C)C (racemic) [Isobornyl acetate]
Aqueous solubility [1, 4]: 0.003 % w/w

Trimethylbenzene
A.I. Solubility at 25° C., Azoxystrobin [3]: 1.7 % w/w
A.I. Solubility at 25° C., Cyproconazole [3]: 5.8 % w/w
Aqueous solubility [1]: 0.1 % w/w

CN1CCCC1=O [N-Methyl pyrrolidone]
Aqueous solubility [1, 4]: 100 % w/w

COCCOCc1nc(C(F)(F)F)ccc1C(=O)C1=C(O)C2CCC(C2)C1=O (stereo not drawn) [4-Hydroxy-3-[2-(2-methoxyethoxymethyl)-6-trifluoromethylpyridine-3-carbonyl]-bicyclo[3.2.1]oct-3-en-2-one]
Solubility in Compound No. 1 at 25° C. [2]: 24.7 % w/w

C[S+](C)[O-] [DMSO]
A.I. Solubility at 25° C., Azoxystrobin [3]: 32.1 % w/w
A.I. Solubility at 25° C., Cyproconazole [3]: 55.5 % w/w
Aqueous solubility [1, 4]: 100 % w/w

CCN(CC)C(=O)c1cccc(C)c1 [Compound No. 1]
Aqueous solubility [1, 4]: 0.1 % w/w

OCC1CCCO1 (stereo not drawn) [Tetrahydrofurfuryl alcohol]
Aqueous solubility [1, 4]: 100 % w/w

CO/C=C(/C(=O)OC)c1ccccc1Oc1cc(Oc2ccccc2C#N)ncn1 [Azoxystrobin]
Solubility in Compound No. 1 at 25° C. [2]: 11.3 % w/w
